In ChEMBL document CHEMBL5727515, “5-[3-[piperzin-1-yl]-3-oxo-propyl]-imidazolidine-2,4-dione derivatives as ADAMTS 4 and 5 inhibitors for treating E.G. osteoarthritis” (2020):

How the values were obtained:
[1] = target: T1, A disintegrin and metalloproteinase with thrombospondin motifs 5 (Homo sapiens, UniProt Q9UNA0); assay: hADAMTS-5 assay: The basis for the assay is the cleavage of the substrate TBIS-1 (5 FAM-TEGEARGSVILLK (5TAMRA)K-NH2) (SEQ ID NO: 2) by human ADAMTS-5.For the dose response (10 point), 4 μL of a dilution series of compound (2 mM highest concentration, 1/5 dilution in DMSO further diluted 1 in 10 in water, corresponding to a final highest concentration of 20 μM), is transferred to 384 well Fluotrac …
T1 sequence (Q9UNA0 whole entry): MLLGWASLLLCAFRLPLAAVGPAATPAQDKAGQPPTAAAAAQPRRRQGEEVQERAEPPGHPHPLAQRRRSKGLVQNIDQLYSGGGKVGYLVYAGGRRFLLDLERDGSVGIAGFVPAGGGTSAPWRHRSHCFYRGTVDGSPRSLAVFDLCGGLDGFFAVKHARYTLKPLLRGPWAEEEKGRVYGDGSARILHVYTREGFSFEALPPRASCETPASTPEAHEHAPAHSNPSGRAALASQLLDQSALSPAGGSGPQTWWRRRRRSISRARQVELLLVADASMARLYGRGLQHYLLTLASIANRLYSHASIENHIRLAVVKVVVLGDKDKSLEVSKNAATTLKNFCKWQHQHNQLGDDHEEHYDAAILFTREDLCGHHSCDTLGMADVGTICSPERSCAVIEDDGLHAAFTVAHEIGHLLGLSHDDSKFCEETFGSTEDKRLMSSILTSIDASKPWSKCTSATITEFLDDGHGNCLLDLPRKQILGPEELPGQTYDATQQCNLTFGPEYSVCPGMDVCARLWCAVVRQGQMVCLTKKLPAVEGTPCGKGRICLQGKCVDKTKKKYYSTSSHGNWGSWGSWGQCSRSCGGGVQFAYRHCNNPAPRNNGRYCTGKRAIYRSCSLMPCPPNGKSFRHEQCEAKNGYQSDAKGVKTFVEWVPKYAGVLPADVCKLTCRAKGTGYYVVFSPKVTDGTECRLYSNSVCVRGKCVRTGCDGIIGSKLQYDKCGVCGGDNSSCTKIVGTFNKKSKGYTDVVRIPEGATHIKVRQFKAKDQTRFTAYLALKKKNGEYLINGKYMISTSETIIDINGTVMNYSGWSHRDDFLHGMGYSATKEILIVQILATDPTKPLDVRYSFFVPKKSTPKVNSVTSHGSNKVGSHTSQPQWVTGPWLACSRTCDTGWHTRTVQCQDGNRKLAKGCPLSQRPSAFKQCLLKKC

[2] = target: Disintegrin and metalloproteinase domain-containing protein 17 (Homo sapiens, UniProt P78536); assay: hTACE assay: The basis for the assay is the cleavage of the substrate 5FAM-LAQAVRSSSRK-5TAMRA (SEQ ID No 3) (Anaspec, custom 34891) by human TACE (R&D SYSTEMS INC., Cat#930-ADB).For the dose response (10 point), 4 μL of a dilution series of compound (2 mM highest concentration, 1/5 dilution in DMSO further diluted 1 in 10 in water, corresponding to a final highest concentration of 20 μM), is …
Sequence of Disintegrin and metalloproteinase domain-containing protein 17 (P78536 whole entry, the tested form may be a part): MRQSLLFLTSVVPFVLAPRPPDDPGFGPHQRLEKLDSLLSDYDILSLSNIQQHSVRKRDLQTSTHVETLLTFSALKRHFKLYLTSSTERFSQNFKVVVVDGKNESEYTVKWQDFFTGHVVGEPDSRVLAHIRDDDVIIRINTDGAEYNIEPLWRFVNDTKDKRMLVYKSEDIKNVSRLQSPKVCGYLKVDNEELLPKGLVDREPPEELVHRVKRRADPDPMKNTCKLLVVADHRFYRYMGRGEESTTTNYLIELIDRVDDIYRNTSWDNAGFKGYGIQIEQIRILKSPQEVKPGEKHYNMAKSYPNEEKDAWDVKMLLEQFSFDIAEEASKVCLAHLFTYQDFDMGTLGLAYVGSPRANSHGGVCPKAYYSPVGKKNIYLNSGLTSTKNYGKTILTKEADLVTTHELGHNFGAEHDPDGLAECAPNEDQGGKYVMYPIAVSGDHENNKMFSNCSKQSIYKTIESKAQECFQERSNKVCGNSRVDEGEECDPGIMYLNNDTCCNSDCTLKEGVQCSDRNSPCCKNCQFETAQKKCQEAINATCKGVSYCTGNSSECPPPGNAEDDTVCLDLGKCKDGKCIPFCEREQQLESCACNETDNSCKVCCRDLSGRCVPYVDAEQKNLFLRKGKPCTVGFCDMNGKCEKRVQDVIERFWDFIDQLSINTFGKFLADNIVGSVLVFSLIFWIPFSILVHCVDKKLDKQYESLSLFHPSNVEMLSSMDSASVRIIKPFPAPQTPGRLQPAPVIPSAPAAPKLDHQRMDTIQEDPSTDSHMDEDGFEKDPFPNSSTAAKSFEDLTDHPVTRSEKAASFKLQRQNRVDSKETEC

Collagenase 3 = Collagenase 3 (Homo sapiens, UniProt P45452); assay: Human MMP13 is preactivated by incubated the enzyme in the same buffer complemented with 1 mM freshly prepared p-Aminophenylmercuric acetate (AMPA) for 1 h at 37° C.The reaction is initiated by adding to the assay plate 390 MMP FRET Substrate I (10 μL, 2.5 μM) in the same buffer.Finally, the fluorescence is read on the Envision (Perkin Elmer) after an incubation of 45 min at room temperature (Excitation 485 nm, Emission 530).
[3] = target: Matrix metalloproteinase-14 (Homo sapiens, UniProt P50281); assay: hMMP14 assay: The basis for the assay is the cleavage of the substrate 390 MMP FRET Substrate I (Anaspec Cat# AS-27076) by human MMP14 (Biomol, Cat#SE-259).For the dose response (10 point), 4 μL of a dilution series of compound 2 mM highest concentration, 1/5 dilution in DMSO further diluted 1 in 10 in water, corresponding to a final highest concentration of 20 μM), is transferred to 384 well …

IC50 [1]	IC50 [2]	IC50 (Collagenase 3)	IC50 [3]	Structure (SMILES)
		> 100 nM		COc1cc(C2CCN(C(=O)CC[C@@]3(C)NC(=O)NC3=O)CC2)cc(Cl)c1Cl
> 100 nM	> 100 nM	> 100 nM		COc1c(Cl)cc(Cl)cc1C1CCN(C(=O)CC[C@H]2NC(=O)NC2=O)CC1

Further lines, the compound ahead of its results:

Structure (SMILES)	IC50 [1]	IC50 [2]	IC50 (Collagenase 3)	IC50 [3]
COc1cc(C2CCN(C(=O)CCC3(C)NC(=O)NC3=O)CC2)c(C)cc1Cl (stereo not drawn)	> 100 nM	> 100 nM	> 100 nM	
COc1c(Cl)cc(Cl)cc1C1CCN(C(=O)CC[C@@]2(C)NC(=O)NC2=O)CC1	> 100 nM		> 100 nM	
COc1cc(C2CCN(C(=O)CC[C@H]3NC(=O)NC3=O)CC2)cc(OC)c1F	> 100 nM		> 100 nM	> 100 nM
COc1cc(C2CCN(C(=O)CC[C@H]3NC(=O)NC3=O)CC2)cc(Cl)c1Cl			> 100 nM	
